Values after ≈ are worked out from the molar mass of the structure shown.
What was measured:
Format in all cases: cell-based, Staphylococcus aureus
Staph aureus 1146 [1] = test: MIC, microtiter broth dilution (CLSI M7-A7), Assay 1, Table 12 column B, no serum; settings: for MIC: Staphylococcus aureus, 1146, Staph aureus 1146, Assay 1, no serum; for MIC, column B: Staph aureus 1146, Assay 1, no serum
Description: (§1) The assays described herein include a panel of bacterial isolates of Staphylococcus aureus. Assay 1 comprises the strains noted in Columns A through E, and Assay 2 comprises the strains noted in Columns F through H. The assays are performed in microtiter trays according to Methods for Dilution Antimicrobial Susceptibility Tests for Bacteria that Grow Aerobically; Approved Standard-7th edition (M7-A7) and interpreted according to the Performance Standards for Antimicrobial Susceptibility Testing; 16th Informational Supplement (M100-S16) published by Clinical Laboratory Standards Institute (CLSI). The antibacterial activity is presented in the form of a minimum inhibitory concentration (MIC) value in μg/ml format. The MIC value represents the lowest concentration of drug measured which prevented macroscopically visible growth under the conditions and specific doses tested. The compounds were initially dissolved in DMSO as 30 mM stocks and diluted accordingly to adjust to a concentration of 10 mg/ml or the compounds were dissolved in DMSO at a concentration of 10 mg/ml. For assessment of activity in the presence of human serum, S. aureus 1146 and S. aureus 1031 were inoculated into Mueller-Hinton Broth with 50% pooled inactivated human serum. In some cases, compounds were tested more than once in a particular assay. Where noted, the MIC value shown in Table 12 represents the geometric mean of the data from multiple runs.
(§2) It should be understood that the data in columns A-H represents MIC data in μg/ml and the notation “<=” means ‘less than or equal to’.

Staph aureus 2812 = test: MIC, microtiter broth dilution (CLSI M7-A7), Assay 1, Table 12 column E, no serum; settings: for MIC: Staphylococcus aureus, 2812, Staph aureus 2812, Assay 1, no serum; for MIC, column E: Staph aureus 2812, Assay 1, no serum
Description: as §1, §2

Staph aureus 2811 = test: MIC, microtiter broth dilution (CLSI M7-A7), Assay 1, Table 12 column D, no serum; settings: for MIC: Staphylococcus aureus, 2811, Staph aureus 2811, Assay 1, no serum; for MIC, column D: Staph aureus 2811, Assay 1, no serum
Description: as §1, §2

Staph aureus 1146 [2] = test: MIC in Mueller-Hinton Broth with 50% pooled inactivated human serum, Assay 1, Table 12; settings: for MIC: Staphylococcus aureus, 1146, Staph aureus 1146, Assay 1, 50% human serum, read-out: MIC, column C; for MIC, column C: Staph aureus 1146, Assay 1, 50% human serum
Description: as §1, §2

Staph aureus 1095 MRSA = test: MIC, microtiter broth dilution (CLSI M7-A7), Assay 1, Table 12 column A, no serum; settings: Assay 1, no serum; for MIC: Staphylococcus aureus, MRSA
Description: as §1, §2

Row | MIC (Staph aureus 1146 [1]) [µg/mL] | MIC (Staph aureus 2812) [µg/mL] | MIC (Staph aureus 2811) [µg/mL] | MIC (Staph aureus 1146 [2]) [µg/mL] | MIC (Staph aureus 1095 MRSA) [µg/mL] | Compound | MIC, column B (Staph aureus 1146 [1]) | MIC, column E (Staph aureus 2812) | MIC, column D (Staph aureus 2811) | MIC, column C (Staph aureus 1146 [2]) [µg/mL] | MIC, column A (Staph aureus 1095 MRSA) [µg/mL]
1 | ≤ 0.0625 | 0.125 (≈ 0.268 µM) | ≤ 0.0625 | 0.5 (≈ 1.07 µM) | 0.125 (≈ 0.268 µM) | COc1ccc2nccc([C@@H](O)CC[C@@H]3CCN(C4CC(C5CCCC5)C4)C[C@@H]3C(=O)O)c2c1 (stereo partly drawn) [Example 47, (3R,4R)-1-(3-cyclopentylcyclobutyl)-4-[(3S)-3-hydroxy-3-(6-methoxyquinolin-4-yl)propyl]piperidine-3-carboxylic acid] |  |  |  |  | 
2 | 32 (≈ 66.3 µM) | 64 (≈ 133 µM) | 64 (≈ 133 µM) | 32 (≈ 66.3 µM) | 32 (≈ 66.3 µM) | COc1ccc2nccc(C(O)CC[C@@H]3CCN(C4CC(C5CCOCC5)C4)C[C@@H]3C(=O)O)c2c1 (stereo partly drawn) [Example 50, (3R,4R)-4-[3-hydroxy-3-(6-methoxyquinolin-4-yl)propyl]-1-[3-(tetrahydro-2H-pyran-4-yl)cyclobutyl] piperidine-3-carboxylic acid] |  |  |  |  | 
3 | 16 (≈ 33.2 µM) | 8 (≈ 16.6 µM) | 16 (≈ 33.2 µM) | 16 (≈ 33.2 µM) | 32 (≈ 66.3 µM) | COc1ccc2nccc(C(O)CC[C@@H]3CCN(C4CC(CC5CCOC5)C4)C[C@@H]3C(=O)O)c2c1 (stereo partly drawn) [Example 51, (3R,4R)-4-[3-hydroxy-3-(6-methoxyquinolin-4-yl)propyl]-1-[3-(tetrahydrofuran-3-ylmethyl)cyclobutyl]piperidine-3-carboxylic acid] |  |  |  |  | 
4 | 16 (≈ 33.2 µM) | 32 (≈ 66.3 µM) | 8 (≈ 16.6 µM) | 16 (≈ 33.2 µM) | > 64 | COc1ccc2nccc(C(O)CC[C@@H]3CCN(C4CC(CC5CCCO5)C4)C[C@@H]3C(=O)O)c2c1 (stereo partly drawn) [Example 52, (3R,4R)-4-[3-hydroxy-3-(6-methoxyquinolin-4-yl)propyl]-1-[3-(tetrahydrofuran-2-ylmethyl)cyclobutyl]piperidine-3-carboxylic acid] |  |  |  |  | 
5 | 1 (≈ 2.21 µM) | 2 (≈ 4.42 µM) | 2 (≈ 4.42 µM) | 32 (≈ 70.7 µM) | 4 (≈ 8.84 µM) | COc1ccc2nccc(C(O)CC[C@@H]3CCN(C4CC5(CCCC5)C4)C[C@@H]3C(=O)O)c2c1 (stereo partly drawn) [Example 55, (3R,4R)-4-[3-hydroxy-3-(6-methoxyquinolin-4-yl)propyl]-1-spiro[3.4]oct-2-ylpiperidine-3-carboxylic acid] |  |  |  |  | 

The next lines start with the compound.

Row | Compound | MIC (Staph aureus 1146 [1]) [µg/mL] | MIC (Staph aureus 2812) [µg/mL] | MIC (Staph aureus 2811) [µg/mL] | MIC (Staph aureus 1146 [2]) [µg/mL] | MIC (Staph aureus 1095 MRSA) [µg/mL] | MIC, column B (Staph aureus 1146 [1]) | MIC, column E (Staph aureus 2812) | MIC, column D (Staph aureus 2811) | MIC, column C (Staph aureus 1146 [2]) [µg/mL] | MIC, column A (Staph aureus 1095 MRSA) [µg/mL]
6 | COc1ccc2nccc([C@H](O)CC[C@@H]3CCN(C4CC(C5CCCC5)C4)C[C@@H]3C(=O)O)c2c1 (stereo partly drawn) [Example 46, (3R,4R)-1-(3-cyclopentylcyclobutyl)-4-[(3R)-3-hydroxy-3-(6-methoxyquinolin-4-yl)propyl]piperidine-3-carboxylic acid] | 1 (≈ 2.14 µM) | 2 (≈ 4.29 µM) | 1 (≈ 2.14 µM) | 8 (≈ 17.1 µM) | 1 (≈ 2.14 µM) |  |  |  |  | 
7 | COc1ccc2nccc([C@@H](O)CC[C@@H]3CCN(C4CC(C5CCCC5)C4)C[C@@H]3C(=O)O)c2c1 (stereo partly drawn) [Example 48, (3R,4R)-1-(3-cyclopentylcyclobutyl)-4-[(3S)-3-hydroxy-3-(6-methoxyquinolin-4-yl)propyl]piperidine-3-carboxylic acid] |  |  |  |  |  | 0.125 µg/mL (≈ 0.268 µM) | 0.125 µg/mL (≈ 0.268 µM) | 0.125 µg/mL (≈ 0.268 µM) | 1 (≈ 2.14 µM) | 0.25 (≈ 0.536 µM)
8 | COc1ccc2nccc(C(O)CC[C@@H]3CCN(C4CC(CC5CCCC5)C4)C[C@@H]3C(=O)O)c2c1 (some centres unmarked) [Example 49] |  |  |  |  |  | <=.0625 μg/ml | <=.0625 μg/ml | <=.0625 μg/ml | 0.25 (≈ 0.52 µM) | 0.125 (≈ 0.26 µM)
9 | COc1ccc2nccc(C(O)CC[C@@H]3CCN(C4CC5CCCCCC54)C[C@@H]3C(=O)O)c2c1 (stereo partly drawn) [Example 53, (3R,4R)-1-[(1,7)-bicyclo[5.2.0]non-8-yl]-4-[3-hydroxy-3-(6-methoxyquinolin-4-yl)propyl] piperidine-3-carboxylic acid] |  |  |  |  |  | >64 µg/mL | 16 µg/mL (≈ 34.3 µM) | 32 µg/mL (≈ 68.6 µM) | >64 | 16 (≈ 34.3 µM)
10 | COc1ccc2nccc(C(O)CC[C@@H]3CCN(C4CC5CCCCC54)C[C@@H]3C(=O)O)c2c1 (stereo partly drawn) [Example 54, (3R,4R)-1-[(1,6)-bicyclo[4.2.0]oct-7-yl]-4-[3-hydroxy-3-(6-methoxyquinolin-4-yl)propyl] piperidine-3-carboxylic acid] |  |  |  |  |  | 64 µg/mL (≈ 141 µM) | >64 µg/mL | >64 µg/mL | >64 | >64

Source: patent publication US20080280879A1, “SUBSTITUTED HETEROCYCLIC DERIVATIVES AND THEIR PHARMACEUTICAL USE AND COMPOSITIONS” (priority 2007, published 2008)
